“And” between values parts separate entries of the source, which are not always exact repeats. Equal entries are not always repeated. Ends that are not written are not given here.
Columns and labels:
[1] = system: TEAD4^high or TEAD4^low GC patient-derived xenografts; test: Patient-derived xenograft (PDX) model; type: in vivo, mouse; design: Tumor area, TEAD4High PDX / Tumor area, TEAD4Low PDX: unit not given beside the values
Procedure: To establish PDX models, cell suspensions from GC patients were prepared as they were for PDOs. Subcutaneous implantation was performed on one flank of 5-week-old SCID mice weighing from 16 to 18 g and that were anesthetized using a isoflurane/oxygen mixture. Tumor growth was monitored by taking biweekly measurements of the implantation sites. Serial engraftments of each tumor were performed when the tumor reached a volume of ~500 mm^3. Subsequently, PDX tumors were enzymatically disassociated to form a single-cell suspension. To reduce murine cell populations, the cell suspension was then subjected to magnetic mouse cell depletion using a MACS mouse cell depletion kit (Miltenyi Biotech, Bergisch Gladbach, Germany). Following the cell depletion, all established PDX cell lines were maintained at steady rates of proliferation in RPMI 1640 medium. Additionally, a small piece of tumor tissue was obtained using a scalpel and fixed in 10% formalin-buffered saline for histological analysis.

[2] = system: GFP-TEAD4 condensates in HEK293FT cells; test: GFP-TEAD4 condensate imaging, condensed fraction in cells; type: cell-based; conditions: HEK293FT, GLUP 10 μg/ml (5 μM) 12 h; individual cells, n = 9
TEAD4 = biological target: T1, TEAD4 (Homo sapiens, UniProt Q15561); test: Dynamic light scattering (DLS) of TEAD4 oligomerization; type: biochemical; conditions: after 10–20 min incubation with glup (10 μg/ml); TEAD4:glup molar ratio 10:1, 4 °C; DLS at 25 °C
T1 construct: His; made in house; host or cells: Escherichia coli BL21(DE3)
Procedure: In the case of glup, the mixtures were incubated at 4 °C for various periods of time as indicated in related figures. And then the mixtures were subjected to dynamic light scattering analysis at 25 °C. Scattered light was measured at a 90° angle at a wavelength of 658 nm.

[3] = 5 mg/kg GLUP daily for 15 d, individual mice, n = 8 (source data Fig 8I)

T1 sequence (Q15561 whole entry): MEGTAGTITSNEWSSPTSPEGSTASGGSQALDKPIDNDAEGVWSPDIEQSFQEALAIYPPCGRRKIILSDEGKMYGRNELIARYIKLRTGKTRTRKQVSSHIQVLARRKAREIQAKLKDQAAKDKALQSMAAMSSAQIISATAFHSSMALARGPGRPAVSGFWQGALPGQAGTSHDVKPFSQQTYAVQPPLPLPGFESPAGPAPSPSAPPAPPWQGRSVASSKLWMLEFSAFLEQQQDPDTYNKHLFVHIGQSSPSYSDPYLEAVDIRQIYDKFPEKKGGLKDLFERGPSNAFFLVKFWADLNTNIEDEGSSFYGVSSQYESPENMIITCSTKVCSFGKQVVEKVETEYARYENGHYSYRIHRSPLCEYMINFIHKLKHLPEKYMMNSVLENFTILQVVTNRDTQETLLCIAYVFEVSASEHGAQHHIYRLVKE

## RRVCVHFHFSLSLR-NH2 (C-terminus assumed) [glup]
[1]; [3]
  Tumor area, TEAD4High PDX: 0 and 0.0472 and 0.0501 and 0.0406 and 0.03159 and 0.05051
  Tumor area, TEAD4Low PDX: 0.09232 and 0.08466 and 0.08264 and 0.05322 and 0.1278 and 0.08635 and 0.1028 (2×)
[1]; GLUP (i.v.) for 2 weeks
  Tumor response, TEAD4^high PDX: significantly regressed
  Tumor response, TEAD4^low PDX: did not respond to the GLUP treatment
[2]
  Condensed fraction of GFP-TEAD4: 25.1852% and 50.001% and 27.6986% and 34.6228% and 22.4908% and 43.1106% and 47.5218% and 38.4928% and 44.4447%
TEAD4
  TEAD4 oligomerization by DLS: formed dimers or oligomers of high molecular weight
